Where two headings read alike, the source gives them in different places.
Columns and labels:
[1] = system: HIV-1IIIB; test: TCID50 determination of drug-treated HIV-1IIIB; type: cell-based; parameters: TCID50, XTT Endpoint / TCID50, RT Endpoint / TCID50, P24 Endpoint: unit not given here
[2] = system: HIV; test: microbe, parasite or virus in culture; type: cell-based
[3] = system: CEM T-lymphocytic cells or MAGI-CCR5 cells; test: Cytotoxicity of two-drug combinations; details: 10 μM highest test concentration
Protocol: The anti-HIV-1 activity of CMX157 is evaluated in two-drug combination studies with twenty-four different FDA-approved anti-HIV inhibitors. Each two-drug combination is tested three times in CEM T-lymphocytic cells or MAGI-CCR5 cells acutely infected with the laboratory-adapted strain HIV-1IIIB or HIV-1Ba-L, respectively. Viral growth/inhibition is evaluated by measuring virus-induced cytopathic effects (CPE) in CEM cells or by β-galactosidase reporter gene induction in MAGI-CCR5 cells at the experimental endpoint. The cytotoxicity of each two-drug combination is also evaluated in parallel with the antiviral evaluations. The concentrations of CMX157 used in these evaluations are selected in order to test a broad range of concentrations and to provide as complete a dose response curve as possible under the limitations of eight total concentrations. […] The “positive antagonism control” of d4T (stavudine) in combination with RBV was tested in parallel with each of the assays that were performed. Analysis of drug interactions for each of the two-drug combinations is performed using the Prichard and Shipman MacSynergy II three-dimensional model for statistical evaluation of combination assays.

[4] = virus treated 15 minutes with 3.9 nM drug
[5] = virus treated 15 minutes with 12.5 nM drug
[6] = virus treated 15 minutes with 39.1 nM drug
[7] = virus treated 15 minutes with 125 nM drug
[8] = virus treated 2 hours with 125 nM drug
[9] = virus treated 2 hours with 250 nM drug
[10] = virus treated 2 hours with 500 nM drug
[11] = virus treated 2 hours with 1000 nM drug

## CCCCCCCCCCCCCCCCOCCCOP(=O)(O)CO[C@H](C)Cn1cnc2c(N)ncnc21 [CMX157, Hexadecyloxypropyl-9-R-[2-(Phosphonomethoxy)Propyl]-Adenine]
[1]; [4]
  Fold Decrease From VC, P24 Endpoint: (2.0) Fold
  Fold Decrease From VC, RT Endpoint: (1.6) Fold
  Fold Decrease From VC, XTT Endpoint: (4.0) Fold
  TCID50, P24 Endpoint: 15207
  TCID50, RT Endpoint: 102336
  TCID50, XTT Endpoint: 4529
[1]; [5]
  Fold Decrease From VC, P24 Endpoint: (5.6) Fold
  Fold Decrease From VC, RT Endpoint: (1.6) Fold
  Fold Decrease From VC, XTT Endpoint: (4.0) Fold
  TCID50, P24 Endpoint: 5383
  TCID50, RT Endpoint: 102336
  TCID50, XTT Endpoint: 4529
[1]; [6]
  Fold Decrease From VC, P24 Endpoint: (4.0) Fold
  Fold Decrease From VC, RT Endpoint: (2.5) Fold
  Fold Decrease From VC, XTT Endpoint: (3.6) Fold
  TCID50, P24 Endpoint: 7604
  TCID50, RT Endpoint: 64570
  TCID50, XTT Endpoint: 5082
[1]; [7]
  Fold Decrease From VC, P24 Endpoint: (4.0) Fold
  Fold Decrease From VC, RT Endpoint: (2.5) Fold
  Fold Decrease From VC, XTT Endpoint: (4.5) Fold
  TCID50, P24 Endpoint: 7604
  TCID50, RT Endpoint: 64570
  TCID50, XTT Endpoint: 4027
[1]; [8]
  Fold Decrease From VC, P24 Endpoint: (4.0) Fold
  Fold Decrease From VC, RT Endpoint: (1.6) Fold
  Fold Decrease From VC, XTT Endpoint: (4.0) Fold
  TCID50, P24 Endpoint: 9058
  TCID50, RT Endpoint: 51172
  TCID50, XTT Endpoint: 1132
[1]; [9]
  Fold Decrease From VC, P24 Endpoint: (3.4) Fold
  Fold Decrease From VC, RT Endpoint: (3.2) Fold
  Fold Decrease From VC, XTT Endpoint: (4.0) Fold
  TCID50, P24 Endpoint: 10765
  TCID50, RT Endpoint: 25588
  TCID50, XTT Endpoint: 1132
[1]; [10]
  Fold Decrease From VC, P24 Endpoint: (4.8) Fold
  Fold Decrease From VC, RT Endpoint: (2.2) Fold
  Fold Decrease From VC, XTT Endpoint: (4.0) Fold
  TCID50, P24 Endpoint: 7604
  TCID50, RT Endpoint: 36227
  TCID50, XTT Endpoint: 1132
[1]; [11]
  Fold Decrease From VC, P24 Endpoint: (4.8) Fold
  Fold Decrease From VC, RT Endpoint: (2.2) Fold
  Fold Decrease From VC, XTT Endpoint: (4.0) Fold
  TCID50, P24 Endpoint: 7604
  TCID50, RT Endpoint: 36227
  TCID50, XTT Endpoint: 1132
[2]; Human immunodeficiency virus 1, PANEL 1, WT
  IC50: 1.72 nM
[2]; Human immunodeficiency virus 1, PANEL 2, WT
  IC50: 1.61 nM
[2]; Human immunodeficiency virus 1, PANEL 3, 6 TAMs, no 184
  IC50: 8.5 nM
[2]; Human immunodeficiency virus 1, PANEL 6, 6 TAMs + 184
  IC50: 5.21 nM
[2]; Human immunodeficiency virus 1, PANEL 7, 184V
  IC50: 1.36 nM
[2]; Human immunodeficiency virus 1, PANEL 9, 69ins, no 184
  IC50: 57.4 nM
[2]; Human immunodeficiency virus 1, PANEL 12, 69ins + 184
  IC50: 11.2 nM
[2]; Human immunodeficiency virus 1, PANEL 14, 65R, no 184
  IC50: 3.6 nM
[2]; Human immunodeficiency virus 1, PANEL 15, 65R + 184V
  IC50: 2.71 nM
[2]; Human immunodeficiency virus 1, PANEL 17, L74V
  IC50: 1.23 nM
[2]; Human immunodeficiency virus 1, PANEL 19, L74V + M184V
  IC50: 0.66 nM
[2]; Human immunodeficiency virus 1, PANEL 26, 151M, no 184
  IC50: 3.68 nM
[2]; Human immunodeficiency virus 1, PANEL 28, 151M + 184
  IC50: 3.05 nM
[2]; Human immunodeficiency virus 1, PANEL 29, L74V − SDM
  IC50: 1.48 nM
[2]; Human immunodeficiency virus 1, PANEL 30, M184V − SDM
  IC50: 1.15 nM
[2]; Human immunodeficiency virus 1, PANEL 31, K65R − SDM
  IC50: 4.73 nM
[2]; Human immunodeficiency virus 1, PANEL 33, T215Y
  IC50: 5 nM
[2]; Human immunodeficiency virus 1, PANEL 34, T215Y + M184V
  IC50: 1.67 nM
[2]; Human immunodeficiency virus 1, PANEL 35, M41L + T215Y
  IC50: 3.91 nM
[2]; Human immunodeficiency virus 1, PANEL 37, M41L + T215Y + M184V
  IC50: 2.88 nM
[2]; Human immunodeficiency virus 1, PANEL 38, M41L + L210W + T215Y
  IC50: 5.96 nM
[2]; Human immunodeficiency virus 1, PANEL 39, M41L + L210W + T215Y
  IC50: 6.56 nM
[2]; Human immunodeficiency virus 1, PANEL 40, M41L + L210W + T215Y + M184V
  IC50: 1.89 nM
[2]; Human immunodeficiency virus 1, PANEL 41, M41L + L210W + T215Y + M184V
  IC50: 2.5 nM
[2]; Human immunodeficiency virus 1, PANEL 42, D67N + K70R
  IC50: 5.61 nM
[2]; Human immunodeficiency virus 1, PANEL 44, D67N + K70R + T215F + K219E + M184V
  IC50: 1.92 nM
[2]; Human immunodeficiency virus 1, PANEL 45, L210W + T215Y
  IC50: 2.79 nM
[2]; Human immunodeficiency virus 1, PANEL 46, D67N + K70E
  IC50: 2.12 nM
[2]; Human immunodeficiency virus 1, PANEL 47, D67N + K70E + M184V
  IC50: 1.45 nM
[2]; Human immunodeficiency virus 1, PANEL 48, K70E + M184V
  IC50: 1.32 nM
[2]; Human immunodeficiency virus 1, read-out: IC50s against NRTI resistant HIV, range over panel
  IC50: 1.2 to 57 nM
[3]
  synergistic cytotoxicity: no evidence of synergistic cytotoxicity

Reference: US8993542B2, “Methods of treating viral infections” (priority 2008, dated 2015)
